# Data from patent publication US6921530B1, “Low dose IL-2 for potentiation of immunity” (Cornell Research Foundation, Inc., priority 1999, dated 2005).
# Several values for one entry are separate records, joined by “and”; a condition that tells them apart may be missing. Identical values can stand only once.
# Columns and labels:
# [1] = tested on: circulating lymphocyte subsets (CD4+ T cells, CD8+ T cells, NK cells); assay: Circulating lymphocyte subsets by flow cytometry in HIV-positive subjects on PART + IL-2 and after cessation of PART; assay type: in vivo, human
# Source text: Conditions for patient exclusion included a) uncontrolled infection; b) concurrent therapy with glucocorticoids or other immunosuppressive agents; or c) concurrent immunomodulating agents, eg. IFN-a, granulocyte colony stimulating factor (G-CSF), granulocyte-monocyte colony stimulating factor (GM-CSF).
# (§1) Prior to the discontinuation of PART, at least 3 months of daily, low-dose (250,000 U/m^2) subcutaneous IL-2 (R-Met-HU IL2-Ala-125, Amgen, Thousand Oaks, Calif.) immuno-stimulatory therapy were administered as described in Jacobsen, E L et al., Proc Natl Acad Sci USA 93:10405-10 (1996). In addition, to ensure the safest possible immune parameters for the discontinuation of PART, IL-2 immuno-stimulation was continued after the anti-viral drugs were withdrawn.
# Subsequent to the discontinuation of PART, plasma HIV was monitored twice weekly. Plasma HIV RNA concentrations were determined on EDTA anti-coagulated plasma samples, which were frozen (−70° C.) within 3 hours of phlebotomy. Samples were assayed by Bayer Diagnostics, Emeryville, Calif. Lymphocyte subsets were determined on fresh blood samples by flow cytometry using subset-specific monoclonal antibodies and a FACSCaliber from Becton-Dickinson, San, Jose, Calif. by standard procedures according to the manufacturer.
# For 3 months prior to the discontinuation of PART, the concentration of circulating lymphocyte subsets were monitored monthly (see Table 1). Subsequent to the discontinuation of PART, the lymphocytes were monitored weekly. Whole blood (1 ml) was activated in vitro with HIV recombinant p55 antigen (Chiron Corp., Emeryville, Calif., 1 μg/ml) for 6 hours at 37 C. During the last 4 hours, Brefeldin A (Sigma, Inc., St. Louis, Mo., […]) was added to retard cytokine secretion. At the end of the incubation, EDTA (Sigma, 100 mM) was added, the blood was vortexed vigorously for 10 seconds, and the erythrocytes were lysed using 10 ml FACSLysing Reagent. After a 10 minute incubation the leukocytes were separated by centrifugation (500×g, 10 min), then resuspended and frozen (−70 C) in 2 ml R.P.M.I. 1640 tissue cuture medium containing 10% fetal calf serum and 10% dimethyl sulfoxide. Prior to labeling with monoclonal antibodies, the cells were thawed, centrifuged (500×g, 10 min) and permeabilized using FACSPerm. After washing with 3 ml phosphate buffered saline (PBS), the cells were incubated with fluorochrome-conjugated monoclonal antibodies for 30 minutes at room temperature in the dark. The cells were then washed 1× with PBS, and then fixed with 0.5% paraformaldehyde and analyzed by flow cytometry.
# [2] = tested on: plasma HIV RNA; assay: Plasma HIV RNA (branched chain DNA assay) after cessation of PART with continued low-dose IL-2; assay type: in vivo; details: for Increasing HIV Dbl time: IL-2 250,000 U/m^2 daily continued; for Max. Decrease (log): peak to trough
# Description: The parameters monitored throughout the study included the time to the onset of viremia, the rate of viremic increase, the peak plasma virus concentration and the rapidity and completeness of the disappearance of viremia.
# as §1, with “withdrawn. […] All subjects had undetectable plasma virus during this interval.” for “withdrawn.”
# Subsequent to the discontinuation of PART, plasma HIV was monitored twice weekly. Plasma HIV RNA concentrations were determined on EDTA anti-coagulated plasma samples, which were frozen (−70° C.) within 3 hours of phlebotomy. Samples were assayed by Bayer Diagnostics, Emeryville, Calif. Lymphocyte subsets were determined on fresh blood samples by flow cytometry using subset-specific monoclonal antibodies and a FACSCaliber from Becton-Dickinson, San, Jose, Calif. by standard procedures according to the manufacturer. All subjects eventually experienced a relapse of viremia The onset of viremia in each subject was taken as t=day 1. The mean time interval until plasma virus once again became detectable was 19±3 (SEM) days (range 14-39 days). Once detectable, the plasma virus concentration increased progressively over 2.5 weeks, reaching a mean peak of 375,101±229,139 (SEM) (log10=5.15±0.21) HIV RNA molecules/ml. Thereafter, the virus concentration decreased progressively over the next 4-6 weeks, reaching an apparent trough defined as at least 4 successive measures of HIV RNA that varied less than 3-fold. By 6 weeks from the onset of the viremia, the mean virus concentration had decreased to 31,707±11,851 (SEM) (log10=4.21±0.19) HIV RNA molecules/ml, a drop from the peak viral concentration by an order of magnitude.
# [3] = tested on: HIV infection; assay: Daily IL-2 in conjunction with HAART in HIV infection (earlier experience); assay type: in vivo, human; details: after 6 months of IL-2 therapy
# Source text: Daily low-dose IL-2 therapy served to correct the deficiency in CD4+ T cells, while maintaining the high frequency of CD8+ HIV-specific CTL, and increasing the circulating NK cells.
# [4] = tested on: HCV; details: cited from earlier work
# [5] = tested on: HBV; details: cited from earlier work
# [6] = after cessation of PART, IL-2 continued, subject #1-9, mean
# [7] = after cessation of PART, IL-2 continued, subject #1-9, mean, mean
# [8] = second treatment interruption, 4 subjects
substance,measurement,setting,value
Interleukin-2 [IL-2],CD8+ T cell concentration as % of baseline levels,[1]; after 2 weeks of viremia,> 200 % of baseline
same,"mean peak increase of CD8+ T cells, group with more rapid viral decline",[1]; after cessation of PART,350 % of baseline
same,"mean peak increase of CD8+ T cells, group with slower viral decline",[1]; after cessation of PART,150 % of baseline
same,change of circulating NK cells,[1]; entire interval after discontinuation of PART,did not change significantly
same,decrease of circulating CD4+ T cells compared with baseline,"[1]; just after the peak of viremia, after discontinuation of PART",24%
same,fold increase of CD8+ T cells from baseline,[1]; subject D3,8 fold
same,CD8+ T cells at peak,"[1]; subject D3, coincident with drop in plasma HIV RNA","4,669 cells/mm3"
same,peak plasma HIV RNA after the first interruption,[2]; 3 of 4 individuals,5.53±0.54 log10 HIV RNA molecules/ml
same,peak plasma HIV RNA after the second interruption,[2]; 3 of 4 individuals,4.27±0.27 log10 HIV RNA molecules/ml
same,peak plasma HIV RNA lower after second than first interruption,[2]; 3 of 4 individuals,1.26±0.14 log10 HIV RNA molecules/ml
same,Increasing HIV Dbl time,"[2]; after cessation of PART, subject #1-9, mean",2.7 days and 1.3 days and 1.0 days and 2.0 days (2×) and 1.6 days (3×) and 1.2 days
same,Increasing HIV Dbl time,"[2]; after cessation of PART, subject #1-9, mean, mean",1.6 days
same,Decreasing HIV Time to Min.,[2]; [6],9 days and 28 days and 24 days and 7 days and 26 days (2×) and 10 days and 17 days and 18 days
same,Increasing HIV Days to Peak,[2]; [6],28 days and 14 days (3×) and 21 days and 16 days (2×) and 18 days and 10 days
same,Peak HIV #,[2]; [6],"375,101±229,139 HIV RNA molecules/ml and 230,074 HIV RNA molecules/ml and 14059 HIV RNA molecules/ml and 40662 HIV RNA molecules/ml and 295942 HIV RNA molecules/ml and 160949 HIV RNA molecules/ml and 2185670 HIV RNA molecules/ml and 300203 HIV RNA molecules/ml and 375101 HIV RNA molecules/ml and 80910 HIV RNA molecules/ml and 230074 HIV RNA molecules/ml and 67442 HIV RNA molecules/ml"
same,Peak HIV (log),[2]; [6],5.15±0.21 log and (4.15) log and (4.61) log and (5.47) log and (5.21) log and (6.34) log and (5.48) log and (5.15) log and (4.91) log and (5.36) log and (4.83) log
same,Trough HIV (log),[2]; [6],4.21±0.19 log and (3.96) log and (4.36) log and (4.69) log and (4.93) log and (4.97) log and (4.21) log and (3.68) log and (4.00) log and (3.36) log
same,Trough HIV #,"[2]; after cessation of PART, IL-2 continued, subject #1-9, mean (by 6 weeks from onset of viremia)","31,707±11,851 HIV RNA molecules/ml and 9215 HIV RNA molecules/ml and 9180 HIV RNA molecules/ml and 22695 HIV RNA molecules/ml and 48562 HIV RNA molecules/ml and 85782 HIV RNA molecules/ml and 92901 HIV RNA molecules/ml and 31707 HIV RNA molecules/ml and 4741 HIV RNA molecules/ml and 10024 HIV RNA molecules/ml and 2266 HIV RNA molecules/ml"
same,Decreasing HIV Time to Min.,[2]; [7],18 days
same,Increasing HIV Days to Peak,[2]; [7],17 days
same,time interval until plasma virus once again became detectable,"[2]; after discontinuation of PART, 9 subjects, mean ± SEM and range",19 ± 3 days and 14 to 39 days
same,Decreasing HIV T ½,"[2]; first 10 days after peak, IL-2 continued, subject #1-9, mean",84 ± 17 h and 182 h and 125 h and 132 h and 81.6 h and 38.4 h and 93.6 h and 84 h and 36 h and 43.2 h
same,Max. Decrease (log),"[2]; subject #1-9, mean",0.19 log and 0.65 log and 1.11 log and 0.52 log and 1.41 log and 0.51 log and 1.23 log and 1.36 log and 1.47 log
same,Max. Decrease (log),"[2]; subject #1-9, mean, mean",0.94 log
same,latent period to detectable viremia,[2]; [8],14.5 ± 4.1 days
same,rate of doubling (t½),[2]; [8],36 ± 7.2 h
same,days plasma HIV RNA undetectable after discontinuation of PART,[2]; subject D3,39 days
same,plasma HIV RNA after 98 days as % of the peak viral concentration,[2]; subject D3,< 1%
same,plasma HIV RNA after 98 days without PART,[2]; subject D3,"1,686 HIV RNA molecules/ml"
same,"mean magnitude of decline of plasma HIV, rapid rate subjects","[2]; subjects #1, 2, 3, 8",1.37±0.05 log10 HIV RNA molecules/ml
same,"t ½ of viral decline, subjects with rapid rate","[2]; subjects #1, 2, 3, 8",38.4 ± 2.4 h
same,"magnitude of decline of plasma HIV, slower rate subjects","[2]; subjects #4, 5, 6, 7, 9",0.59±0.15 log10 HIV RNA molecules/ml
same,"mean t ½ of viral decline, subjects with slow rate","[2]; subjects #4, 5, 6, 7, 9",122 ± 17 h
same,Delayed Type Hypersensitivity (DTH) to common environmental antigens,[3],more than doubled
same,dose best tolerated and most effective,"[4]; 33 subjects, s.c., 12 weeks, no IFN",2×10^6 CT/day
same,sustained virologic response,[4]; in vivo,No sustained virologic response was found
same,biochemical response rate (normalization of ALT) at the end of treatment,"[4]; preferred dose, 12 weeks",24%
same,biochemical response rate 6 months following a 12 week course,[4]; preferred dose,12%
same,subjects with 50% reduction in HBV viral titer,"[5]; 9×10^6 CU s.c. weekly for three weeks, then 1.8×10^6 CU twice a week for three months",4/7
same,subjects with response,[5]; doses up to 3.6×10^6 CU/day SC qd for eight weeks,5/30
same,subsequent decrease in ALT levels,[5]; following the transient increase,30%
same,transient increase in ALT levels,[5]; in vivo,30%
